Reference: PMC3882240, “Matrix Stiffness Affects Endocytic Uptake of MK2-Inhibitor Peptides” (PLoS ONE, 2014)
Where a SMILES comes first, the peptide text is derived from it. Where no end group is shown, it is not given here. The star is where a group is joined. FITC = O=C1OC2(c3ccc(O)cc3Oc3cc(O)ccc32)c2ccc(NC(=S)*)cc21; Ahx = NCCCCCC(=O)O

System: mesothelial cells
Test: Intracellular uptake of FITC-YARA by flow cytometry / confocal imaging
Type: cell-based, Human
Experimental: Flow cytometry was used to characterize the uptake of FITC-YARA. Mesothelial cells were seeded on gel substrates or tissue culture plastic, and cultured as previously described. After treating overnight with serum free media, cells were treated with various concentrations of FITC-YARA (refer to figures) or PBS (untreated control) in serum free media and incubated for 24 hours. To collect cells for flow cytometry, cells were washed with PBS, trypsin treated for 5–10 minutes, neutralized with serum-containing media, collected in a 15-ml conical tube and spun down at 300 × g for seven minutes. Cells were washed with PBS, quenched with trypan blue, then washed four to five times with PBS. Once excess trypan blue was washed away, cells were fixed using 1X cytofix buffer (BD). Samples were stored protected from light at 4°C until samples were run on the Cytomics FC500 MPL flow cytometer (Beckman Coulter) equipped with MXP Cytometry List Mode Data Acquisition and Analysis Software. Data acquisition required 10,000 events. Figures were obtained using Flow Jo software.
To characterize uptake on soft substrates, cells were pretreated with 10 mM methyl-β-cyclodextrin (MβCD) for 1 hour or incubated at 4°C for 30 minutes, then treated with 3 µM YARA for 1 hour. Cells were then collected and assayed by flow cytometry as previously described.
To elucidate the role of the cytoskeleton in the uptake of FITC-YARA, mesothelial cells were treated with various chemicals known to alter the cytoskeleton. Cytochalasin D (Sigma; 5 µg/ml) was used as an inhibitor of stress fiber formation on tissue culture plastic, lysophosphatidic acid (LPA; Sigma; 1,5,and 25 µg/ml ) was used to induce stress fiber formation on soft substrates and tissue culture plastic, and nocodozole (Calbiochem; 1 and 10 µg/ml) was used to inhibit microtubule polymerization on soft substrates. Cells were seeded and grown on substrates or tissue culture plastic as previously described. Following one hour pretreatment with the various inhibitors, cells were incubated with FITC-YARA for 1 hour then processed for flow cytometry.
For confocal images, cells were treated with FITC-YARA for 1 hour, then washed five times with media before imaging live using an FV1000 confocal microscopy equipped with ASW-10 software (Olympus).

Compound	uptake on soft substrates compared to tissue culture plastic at high seeding density (3 µM FITC-YARA, 71,000 cells/cm^2, flow cytometry)	uptake on soft substrates compared to tissue culture plastic (3 µM FITC-YARA, 24 h, 21,000 cells/cm^2, serum-free media, flow cytometry, trypan blue quench)	intracellular uptake compared to untreated controls (all substrates, 3 µM FITC-YARA, 24 h, flow cytometry)	uptake on soft substrates with MβCD (soft substrate, 10 mM methyl-β-cyclodextrin pretreatment 1 h then 3 µM peptide 1 h, flow cytometry)	uptake on soft substrates at 4°C (soft substrate, 30 min at 4°C then 3 µM peptide 1 h, flow cytometry)	effect of cytochalasin D (actin filament disruption) on peptide uptake (3 µM, TCPS, 5 µg/ml cytochalasin D 1 h pretreatment, peptide 1 h, flow cytometry)	effect of nocodazole (microtubule polymerization inhibition) on uptake (3 µM, soft substrate, 21,000 cells/cm^2, 1 or 10 µg/ml nocodazole 1 h pretreatment, peptide 1 h, flow cytometry, dose dependent)	effect of LPA (actin filament induction) on peptide uptake (3 µM, soft substrate, 21,000 cells/cm^2, 5 or 25 µg/ml LPA 1 h pretreatment, peptide 1 h, flow cytometry)
CC(C)C[C@H](NC(=O)[C@H](C)NC(=O)[C@H](CCCCN)NC(=O)[C@H](C)NC(=O)[C@H](CCCNC(=N)N)NC(=O)[C@H](C)NC(=O)[C@H](CCC(N)=O)NC(=O)[C@H](CCCNC(=N)N)NC(=O)[C@H](C)NC(=O)[C@H](C)NC(=O)[C@H](C)NC(=O)[C@H](CCCNC(=N)N)NC(=O)[C@H](C)NC(=O)[C@H](Cc1ccc(O)cc1)NC(=O)CCCCCNC(=S)Nc1ccc2c(c1)C(=O)OC21c2ccc(O)cc2Oc2cc(O)ccc21)C(=O)N[C@@H](C)C(=O)N[C@@H](CCCNC(=N)N)C(=O)N[C@@H](CCC(N)=O)C(=O)N[C@@H](CC(C)C)C(=O)NCC(=O)N[C@H](C(=O)N[C@@H](C)C(=O)N[C@@H](C)C(N)=O)C(C)C [FITC-YARA] ({FITC-Ahx}-YARAAARQARAKALARQLGVAA-NH2)	decreased the amount of FITC-YARA that was endocytosed	approximately double the uptake	increased intracellular uptake compared to untreated controls	inhibited with MβCD pretreatment	inhibited at low temperatures			
YARAAARQARAKALARQLGVAA-NH2 [YARA]						no effect on peptide uptake	pronounced increase in YARA uptake	no effect on peptide uptake
